In patent US11083732B2, “Use of negative modulators of GABA receptors containing alpha5 subunits as fast acting antidepressants” (University of Maryland, Baltimore, priority 2014, dated 2021):
“Also recorded” adds a separate entry of the source.

What was measured:
[1] = tested on: TA-CA1 synapses; experiment: Acute slice electrophysiology: fEPSPs at TA-CA1 synapses after in vivo injection; parameters: species or system rat
Experimental: Acute slice electrophysiology. Standard methods were used to prepare 400-μm-thick transverse hippocampal slices. Dissection and recording saline contained: 124 mM NaCl, 3 mM KCl, 1.25 mM NaH2PO4, 1.5 mM MgSO4, 2.5 mM CaCl2, 26 mM NaHCO3, and 10 mM glucose, bubbled with 95% O2/5% CO2. Slices were then transferred to a submersion-type recording chamber and perfused at 0.5 2 ml/min at 20-22° C. Picrotoxin (100 μM) and CGP52432 (2 μM) were included to block GABAA and GABAB receptors, and the CA3 region was removed with a scalpel. Because TA-CA1 synapses are electrotonically remote from CA1 cell somata, extracellular recording of local field excitatory postsynaptic potentials (fEPSPs) was used. Recording pipettes (3-5 MSΩ) contained extracellular saline and were placed in stratum lacunosum-moleculare (SLM) to record TA-CA1 responses. fEPSPs were amplified 1000×, filtered at 3 kHz, and digitized at 10 kHz. Concentric bipolar tungsten electrodes were placed >500 μm from the […] in SLM for TA afferents. Stimuli (100 μs) were delivered at 0.05 Hz.
As in previous work (Kallarackal et al., 2013), Mg2+-free saline was used to produce a robust NMDAR-mediated component of the fEPSP for quantification of AMPAR-mediated synaptic excitation. 3-5 consecutive responses were averaged and fEPSP slope was calculated over a 1-3 ms window. […] For NMDA responses, DNQX (50 μM) was bath applied for 15 min and the slope was calculated over a 3-5 ms window in the rising phase of the response, 5-10 ms after its initiation. […]
The inventors used extracellular electrophysiological recording of fEPSPs at TA-CA1 synapses in SLM of area CA1 in brain slices prepared from unstressed rats, rats subjected to ten days of CRS and given a vehicle injection 24 hrs earlier, and rats subjected to ten days of CRS and given an L-655,708 injection 24 hrs earlier (0.7 mg/kg, i.p.). These were the same rats used for the behavioral analyses in FIG. 6. fEPSPs were recorded in ACSF lacking added Mg2+ so as to unblock NMDA receptors. […]

[2] = biological target: GABAARs containing the alpha5 subunit (Homo sapiens, UniProt P18507+P31644); details: Atack et al., 2005; 2006; cited from earlier work
[3] = tested on: rats subjected to chronic unpredictable stress; experiment: Sucrose preference test (SPT) after chronic unpredictable stress (CUS); type: in vivo, rat; details: L-655,708 24 hours earlier
Experimental: Sucrose preference test. Rats are administered a sucrose preference test before chronic unpredictable stress or no stress. The left bar of the pairs (black) reflects CUS rats and the right bar of the pairs (white) reflects unstressed rats.
Chronic unpredictable stress (CUS). Male Sprague-Dawley rats (4-5 weeks-old; Harlan Laboratories) were randomly divided into control and CUS groups. Rats in the CUS group were individually housed. CUS animals were treated with two mild stressors every day for 5-6 weeks during their light phase (Willner et al., 1987). The stressors were randomly cycled to enhance unpredictability. The stressors were: forced swim, in which rats were placed in a basin containing cold water for 5 minutes; strobe lighting, in otherwise total darkness for 30 minutes; restraint, during which rats were put into appropriately sized restraint tubes for 30 minutes; exposure to white noise for 30 minutes; and food or water deprivation for 14 hours spanning the dark phase.
Sucrose preference test (SPT). Rats were given a choice between two bottles containing tap water or a 1% sucrose solution (Rygula et al., 2006). Testing was conducted overnight (16 hours), including the full duration of their dark phase. […] Sucrose preference was calculated as amount of the sucrose solution consumed as a percentage of the total amount of liquid consumed.

[4] = tested on: unstressed rats; experiment: Sucrose preference and social interaction tests in unstressed rats; type: in vivo, rat; details: 24 hrs after injection
Experimental: Sucrose preference test (SPT). Rats were given a choice between two bottles containing tap water or a 1% sucrose solution (Rygula et al., 2006). Testing was conducted overnight (16 hours), including the full duration of their dark phase. Animals were first trained with both bottles while group-housed. For subsequent tests, including during the baseline period, animals were individually housed. Sucrose preference was calculated as amount of the sucrose solution consumed as a percentage of the total amount of liquid consumed.
Social interaction test (SIT). As described previously (Berton et al., 2006), rats were placed in a plastic enclosure (82×82 cm) with a 5×5 grid of squares (16.4×16.4 cm) visible underneath the clear plastic flooring. A small translucent perforated plastic box (20×16 cm) was placed against the center of one wall of the arena. […]
Each test consisted of a “target-absent” trial followed by a “target-present” trial. During testing, an individual test rat was placed in the center of the arena and, after 30s of adaptation, the rat's movements were recorded with the video camera for 2.5 minutes. […]
Results were quantified as the percentage of time spent in the “interaction zone” (the five grid squares immediately surrounding the plastic cage) as measured for both the “target-absent” and “target-present” trials. […]

[5] = tested on: rats; experiment: Open field test (anxiety); details: rat, in vivo
Text: C1. One cohort of control rats are given a baseline open field test. One week later, half of the animals receive an injection of L-665,708 or vehicle, followed 24 hrs later by a second open field test in a new arena.

[6] = slices from rats after 10 days CRS, L-655,708 0.7 mg/kg i.p. 24 hrs earlier

GABAARs containing the alpha5 subunit, sequence (P31644 32-462): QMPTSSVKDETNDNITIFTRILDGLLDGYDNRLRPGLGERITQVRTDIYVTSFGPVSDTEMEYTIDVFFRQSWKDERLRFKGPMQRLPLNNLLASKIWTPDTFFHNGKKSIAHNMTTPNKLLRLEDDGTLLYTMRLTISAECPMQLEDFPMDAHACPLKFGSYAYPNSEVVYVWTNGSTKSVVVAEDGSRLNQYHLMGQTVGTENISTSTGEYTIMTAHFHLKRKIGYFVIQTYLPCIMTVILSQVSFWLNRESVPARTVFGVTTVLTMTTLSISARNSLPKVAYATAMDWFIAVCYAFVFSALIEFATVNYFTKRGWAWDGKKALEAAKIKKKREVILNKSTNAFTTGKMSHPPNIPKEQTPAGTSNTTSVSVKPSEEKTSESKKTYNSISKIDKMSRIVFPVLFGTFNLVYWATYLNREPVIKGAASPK
GABAARs containing the alpha5 subunit, sequence (P18507 40-475): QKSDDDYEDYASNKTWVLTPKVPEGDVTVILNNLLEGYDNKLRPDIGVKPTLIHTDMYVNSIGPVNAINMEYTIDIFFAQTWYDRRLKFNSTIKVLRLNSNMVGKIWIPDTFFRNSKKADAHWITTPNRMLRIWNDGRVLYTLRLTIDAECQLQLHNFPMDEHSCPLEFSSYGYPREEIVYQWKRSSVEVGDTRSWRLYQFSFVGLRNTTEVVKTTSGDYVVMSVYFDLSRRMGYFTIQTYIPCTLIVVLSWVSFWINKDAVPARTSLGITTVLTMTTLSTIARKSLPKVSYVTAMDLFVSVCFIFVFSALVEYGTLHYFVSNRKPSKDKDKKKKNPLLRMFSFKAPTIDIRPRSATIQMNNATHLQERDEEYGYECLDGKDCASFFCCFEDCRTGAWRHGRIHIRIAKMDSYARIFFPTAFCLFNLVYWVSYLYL
GABAARs containing the alpha5 subunit, sequence (P28472 26-473 partner): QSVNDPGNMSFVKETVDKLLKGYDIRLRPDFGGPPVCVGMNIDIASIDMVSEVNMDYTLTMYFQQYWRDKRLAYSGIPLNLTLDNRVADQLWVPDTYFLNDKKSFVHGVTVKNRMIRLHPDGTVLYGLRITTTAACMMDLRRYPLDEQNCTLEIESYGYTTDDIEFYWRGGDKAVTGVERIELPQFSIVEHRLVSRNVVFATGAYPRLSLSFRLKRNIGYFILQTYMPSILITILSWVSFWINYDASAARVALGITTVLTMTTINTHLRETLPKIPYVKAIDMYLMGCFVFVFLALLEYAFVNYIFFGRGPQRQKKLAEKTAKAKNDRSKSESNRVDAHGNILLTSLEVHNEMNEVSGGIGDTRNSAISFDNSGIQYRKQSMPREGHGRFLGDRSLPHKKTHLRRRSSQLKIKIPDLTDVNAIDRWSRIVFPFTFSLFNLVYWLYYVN

SMILES: CCOC(=O)c1ncn2c1[C@@H]1CCCN1C(=O)c1cc(OC)ccc1-2 [L-655,708, ethyl (13aS)-7-methoxy-9-oxo-11, 12,13,13 a-terahydro-9H-imidazo[1,5-a]pyrrolo[2,1-c] [1,4]benzodiazepine-1-carboxylate]
- AMPA:NMDA ratio ([1]; slices from CRS rats, L-655,708 24 hrs earlier, compared to vehicle-treated CRS animals): significantly higher
- AMPAR-mediated signaling at TA-CA1 synapses (slope of AMPAR component of fEPSP) [1, 6]: reversed rapidly
- slope of the NMDA component of the fEPSP [1, 6]: no corresponding difference
- selectivity for GABAARs containing the alpha5 subunit [2]: 10-100 fold
- sucrose preference [3]: restores the behavior; also recorded: restored sucrose preference
- social interaction [4]: no change
- sucrose preference [4]: no change
- anxiety in the open field test [5]: no evidence of increased anxiety
